Several values for one entry are separate records, joined by “and”; a condition that tells them apart may be missing. Identical values can stand only once. Like-named read-outs stand apart in the source and are kept apart here.
What was measured:
[1] = Food effect and relative bioavailability crossover study, Compound (1) vs sodium oxybate; conditions: 7.25 g Compound (1) oral; for AUC(0-inf) / AUC(0-t) / Cmax / half-life / Tmax: human, plasma, po, 7.25 g; for AUC(0-inf): Compound (1) plasma AUC0-inf; for Tmax: Compound (1) plasma Tmax
Wherever Purity (Area %) is given: time not given here.

In the case of `CC(C)[C@H](N)C(=O)OCCCC(=O)O` [Compound (1), 4-((L-valyl)oxy)butanoic acid], the “Purity (Area %)” value (pH 1.2) is reported as 99.25 Area % and 99.22 Area % and 98.95 Area %, the “Purity (Area %)” value (pH 4.5) is reported as 99.25 Area % and 99.05 Area % and 98.35 Area % and the “Purity (Area %)” value (pH 6.8) is reported as 99.08 Area % and 97.58 Area % and 93.14 Area %. For the same molecule, the “Purity (Area %)” value (pH 7.4) was 98.84 Area % and 95.74 Area % and 87.89 Area %, the “plasma Compound (1) AUC0-tlast, Adjusted Geometric Mean Ratio (Fed vs Fasted)” value [1] was 1.28 and the “plasma Compound (1) Cmax, Adjusted Geometric Mean Ratio (Fed vs Fasted)” value [1] was 0.65. The “Compound (1) plasma AUC0-inf, Max” value ([1]; Fasted) was 30800 ng·h/mL, the “Compound (1) plasma AUC0-inf, Min” value ([1]; Fasted) was 9500 ng·h/mL and the “Compound (1) plasma AUC0-tlast, Max” value ([1]; Fasted) was 36100 ng·h/mL. For the same molecule, the “Compound (1) plasma AUC0-tlast, Min” value ([1]; Fasted) was 9400 ng·h/mL, the “Compound (1) plasma Cmax, Max” value ([1]; Fasted) was 43600 ng/mL and the “Compound (1) plasma Cmax, Min” value ([1]; Fasted) was 9400 ng/mL. For the same molecule, the “Compound (1) plasma T1/2, Max” value ([1]; Fasted) was 114 min, the “Compound (1) plasma T1/2, Min” value ([1]; Fasted) was 16.2 min and the “Compound (1) plasma AUC0-inf, Max” value ([1]; Fed) was 39000 ng·h/mL. For the same molecule, the “Compound (1) plasma AUC0-inf, Min” value ([1]; Fed) was 16000 ng·h/mL, the “Compound (1) plasma AUC0-tlast, Max” value ([1]; Fed) was 38600 ng·h/mL and the “Compound (1) plasma AUC0-tlast, Min” value ([1]; Fed) was 15900 ng·h/mL. For the same molecule, the “Compound (1) plasma Cmax, Max” value ([1]; Fed) was 27800 ng/mL, the “Compound (1) plasma Cmax, Min” value ([1]; Fed) was 5500 ng/mL and the “Compound (1) plasma T1/2, Max” value ([1]; Fed) was 69 min. For the same molecule, the “Compound (1) plasma T1/2, Min” value ([1]; Fed) was 16.2 min, the “Compound (1) plasma Tmax, Max” value ([1]; Fed) was 90 min and the AUC(0-inf) ([1]; Mean, Fasted) was 22400 ng·h/mL. The AUC(0-inf) ([1]; Mean, Fed) was 29000 ng·h/mL, the AUC(0-inf) ([1]; Median, Fasted) was 20400 ng·h/mL and the AUC(0-inf) ([1]; Median, Fed) was 29100 ng·h/mL. The AUC(0-t) ([1]; Compound (1) plasma AUC0-tlast, Mean, Fasted) was 23900 ng·h/mL, the AUC(0-t) ([1]; Compound (1) plasma AUC0-tlast, Mean, Fed) was 28800 ng·h/mL and the AUC(0-t) ([1]; Compound (1) plasma AUC0-tlast, Median, Fasted) was 22500 ng·h/mL. For the same molecule, the AUC(0-t) ([1]; Compound (1) plasma AUC0-tlast, Median, Fed) was 29000 ng·h/mL, the Cmax ([1]; Compound (1) plasma Cmax, Mean, Fasted) was 27700 ng/mL and the Cmax ([1]; Compound (1) plasma Cmax, Mean, Fed) was 18100 ng/mL. It also gave a Cmax ([1]; Compound (1) plasma Cmax, Median, Fasted) of 27300 ng/mL, a Cmax ([1]; Compound (1) plasma Cmax, Median, Fed) of 17300 ng/mL and a half-life ([1]; Compound (1) plasma T1/2, Mean, Fasted) of 32.4 min. The half-life ([1]; Compound (1) plasma T1/2, Mean, Fed) was 38.4 min, the half-life ([1]; Compound (1) plasma T1/2, Median, Fasted) was 21 min and the half-life ([1]; Compound (1) plasma T1/2, Median, Fed) was 35.4 min. The Tmax ([1]; Median, Fasted) was 45 min, the Tmax ([1]; Median, Fed) was 30 min and the AUC(0-t) ([1]; plasma Compound (1) AUC0-tlast, Adjusted Geometric Mean, Fasted) was 21000 ng·h/mL. The AUC(0-t) ([1]; plasma Compound (1) AUC0-tlast, Adjusted Geometric Mean, Fed) was 27000 ng·h/mL, the Cmax ([1]; plasma Compound (1) Cmax, Adjusted Geometric Mean, Fasted) was 25400 ng/mL and the Cmax ([1]; plasma Compound (1) Cmax, Adjusted Geometric Mean, Fed) was 16500 ng/mL.

Source: patent US11896573B2, “Pharmaceutical compositions and pharmacokinetics of a gamma-hydroxybutyric acid derivative” (priority 2020, dated 2024)
